Source: patent publication US6982148B2, “Progressive elevated gene-3 (PEG-3) induces aggressive cancer phenotype and regulates angiogenesis” (The Trustees of Columbia University in the City of New York, priority 1999, dated 2006)

Experiments:
PEG-3 = PEG-3 mRNA and transcription after DNA damage; format: cell-based, rat; details: following DNA damage
From the text: The specific role of the gadd34/MyD116 gene in cellular physiology is not known. Like hamster gadd34 and its murine homologue MyD116, PEG-3 steady-state mRNA and RNA transcriptional levels are increased following DNA damage by methyl methanesulfonate (MMS) and gamma irradiation (γIR) (FIGS. 2 and 5 and data not shown). In contrast, nuclear run-on assays indicate that only the PEG-3 gene is transcriptionally active (transcribed) as a function of transformation progression (FIG. 5). This is apparent in CREF cells transformed by Ha-ras and in E11-NMT and various E11-NMT subclones either expressing or not expressing the progression phenotype (FIG. 5). The gadd34/MyD116 gene, as well as the gadd45, MyD118 and gadd153 genes, encode acidic proteins with very similar and unusual charge characteristics (24). PEG-3 also encodes a putative protein with acidic properties similar to the gadd and MyD genes (FIG. 3). The carboxyl-terminal domain of the murine MyD116 protein is homologous to the corresponding domain of the herpes simplex virus 1 γ134.5 protein, that prevents the premature shutoff of total protein synthesis in infected human cells (35,36). Replacement of the carboxyl-terminal domain of γ134.5 with the homologous region from MyD116 results in a restoration of function to the herpes viral genome, i.e., prevention of early host shutoff of protein synthesis (36). […]

VEGF = VEGF transcription and steady-state mRNA in E11 cells after transient PEG-3 transfection; format: cell-based, rat; details: added 4 hr after PEG-3 transfection of E11 cells
Method: Transfection of PEG-3 into E11 cells induces steady-state VEGF mRNA. E11 cells were transfected with a pZeoSV/PEG-3 or pZeo SV vector, 4 hr later replicate cultures received cycloheximide and 30 hr later total RNA was extracted and analyzed by Northern blotting for PEG-3, VEGF, Ad5 ElA and GAPDH mRNA expression.
Nucleic Acid Analyses. Steady-state levels of PEG-3, VEGF, ElA, and GAPHD mRNA were determined by Northern analysis of total cytoplasmic RNA using appropriate multiprimed ^32P-labeled cloned cDNA probes as described previously (18,19). Briefly, 10 μg of total RNA from the different cell types were electrophoresed in a 1% agarose gel, transferred to a nylon membrane and hybridized with the different ^32p-labeled CDNA fragments. The membrane was stripped and hybridized with indicated probes sequentially. […]
To examine further the relationship between PEG-3 and VEGF, experiments were performed to determined if transient ectopic expression of PEG-3 in rodent and human tumor cells could elevate VEGF expression. E11 cells were transfected with a PEG-3 expression construct, nuclei were isolated and evaluated for elevated VEGF transcription and total cytoplasmic RNA was isolated and steady-state VEGF mRNA levels were determined by Northern blotting (FIG. 8 and data not shown). […]

| SMILES | PEG-3 steady-state mRNA and RNA transcriptional levels (PEG-3) | Effect on PEG-3 induced elevation of VEGF transcription and RNA (VEGF) |
| --- | --- | --- |
| COS(C)(=O)=O [MMS, methyl methanesulfonate] | increased | – |
| C[C@@H]1C[C@@H]([C@H](O)CC2CC(=O)NC(=O)C2)C(=O)[C@@H](C)C1 [cycloheximide] | – | prevented |
